# Results as given in PMC10211317, “Identification of ARUK2002821 as an isoform-selective PI5P4Kα inhibitor” (RSC Medicinal Chemistry, 2023).
# Key:
# Test in all cases: Premier Screen kinase panel (MRC PPU)
# Type in all cases: biochemical
# p38g MAPK = p38g MAPK (Homo sapiens, UniProt P53778); details: p38g MAPK (Entrez MAPK13), read-out: Residual activity (%)
# Experimental: (§1) room temperature with shaking for 30 minutes. The kinase concentration in the eluates was measured by qPCR.
# (§2) using ADP-GloTM assay at the MRC PPU International Centre for Kinase Profiling, University of Dundee.
# (§3) Conducted by MRC PPU International Centre
# (§4) Conducted by MRC PPU International Centre for […]
# NEK2a = NEK2a (Homo sapiens, UniProt P51955); details: NEK2a (Entrez NEK2), read-out: Residual activity (%)
# Experimental: as §1, §2, §3, §4
# EPH-B4 = EPH-B4 (Homo sapiens, UniProt P54760); details: EPH-B4 (Entrez EPHB4), read-out: Residual activity (%)
# Experimental: as §1, §2, §3, §4
# ZAP70 = ZAP70 (Homo sapiens, UniProt P43403); details: ZAP70 (Entrez ZAP70), read-out: Residual activity (%)
# Experimental: as §1, §2, §3, §4
# PDK1 = PDK1 (Homo sapiens, UniProt O15530); details: PDK1 (Entrez PDPK1), read-out: Residual activity (%)
# Experimental: as §1, §2, §3, §4
# RSK1 = RSK1 (Homo sapiens, UniProt Q15418); details: RSK1 (Entrez RPS6KA1), read-out: Residual activity (%)
# Experimental: as §1, §2, §3, §4
# Src = Src (Homo sapiens, UniProt P12931); details: Src (Entrez SRC), read-out: Residual activity (%)
# Experimental: as §1, §2, §3, §4
# TLK1 = TLK1 (Homo sapiens, UniProt Q9UKI8); details: TLK1 (Entrez TLK1), read-out: Residual activity (%)
# Experimental: as §1, §2, §3, §4
# PIM2 = PIM2 (Homo sapiens, UniProt Q9P1W9); details: PIM2 (Entrez PIM2), read-out: Residual activity (%)
# Experimental: as §1, §2, §3, §4
# SIK2 = SIK2 (Homo sapiens, UniProt Q9H0K1); details: SIK2 (Entrez SIK2), read-out: Residual activity (%)
# Experimental: as §1, §2, §3, §4
# p38d MAPK = p38d MAPK (Homo sapiens, UniProt O15264); details: p38d MAPK (Entrez MAPK12), read-out: Residual activity (%)
# Experimental: as §1, §2, §3, §4
# LKB1 = LKB1 (Homo sapiens, UniProt Q15831); details: LKB1 (Entrez STK11), read-out: Residual activity (%)
# Experimental: as §1, §2, §3, §4
# DAPK1 = DAPK1 (Homo sapiens, UniProt P53355); details: DAPK1 (Entrez DAPK1), read-out: Residual activity (%)
# Experimental: as §1, §2, §3, §4
# MNK2 = MNK2 (Homo sapiens, UniProt Q9HBH9); details: MNK2 (Entrez MKNK2), read-out: Residual activity (%)
# Experimental: as §1, §2, §3, §4
# JNK1 = JNK1 (Homo sapiens, UniProt P45983); details: JNK1 (Entrez MAPK8), read-out: Residual activity (%)
# Experimental: as §1, §2, §3, §4
# EF2K = EF2K (Homo sapiens, UniProt O00418); details: EF2K (Entrez EEF2K), read-out: Residual activity (%)
# Experimental: as §1, §2, §3, §4
# CK1γ2 = CK1γ2 (Homo sapiens, UniProt P78368); details: CK1γ2 (Entrez CSNK1D), read-out: Residual activity (%)
# Experimental: as §1, §2, §3, §4
# PKCa = PKCa (Homo sapiens, UniProt P17252); details: PKCa (Entrez PRKCA), read-out: Residual activity (%)
# Experimental: as §1, §2, §3, §4
# IRAK4 = IRAK4 (Homo sapiens, UniProt Q9NWZ3); details: IRAK4 (Entrez IRAK4), read-out: Residual activity (%)
# Experimental: as §1, §2, §3, §4
# PKBa = PKBa (Homo sapiens, UniProt P31749); details: PKBa (Entrez AKT1), read-out: Residual activity (%)
# Experimental: as §1, §2, §3, §4
# MAPKAP-K3 = MAPKAP-K3 (Homo sapiens, UniProt Q16644); details: MAPKAP-K3 (Entrez MAPKAPK3), read-out: Residual activity (%)
# Experimental: as §1, §2, §3, §4
# PIM3 = PIM3 (Homo sapiens, UniProt Q86V86); details: PIM3 (Entrez PIM3), read-out: Residual activity (%)
# Experimental: as §1, §2, §3, §4
# ASK1 = ASK1 (Homo sapiens, UniProt Q99683); details: ASK1 (Entrez MAP3K5), read-out: Residual activity (%)
# Experimental: as §1, §2, §3, §4
# SGK1 = SGK1 (Homo sapiens, UniProt O00141); details: SGK1 (Entrez SGK1), read-out: Residual activity (%)
# Experimental: as §1, §2, §3, §4
# Lck = Lck (Homo sapiens, UniProt P06239); details: Lck (Entrez LCK), read-out: Residual activity (%)
# Experimental: as §1, §2, §3, §4
# TESK1 = TESK1 (Homo sapiens, UniProt Q15569); details: TESK1 (Entrez TESK1), read-out: Residual activity (%)
# Experimental: as §1, §2, §3, §4
# TSSK1 = TSSK1 (Homo sapiens, UniProt Q9BXA7); details: TSSK1 (Entrez TSSK1B), read-out: Residual activity (%)
# Experimental: as §1, §2, §3, §4
# MPSK1 = MPSK1 (Homo sapiens, UniProt O75716); details: MPSK1 (Entrez STK16), read-out: Residual activity (%)
# Experimental: as §1, §2, §3, §4
# IGF-1R = IGF-1R (Homo sapiens, UniProt P08069); details: IGF-1R (Entrez IGF1R), read-out: Residual activity (%)
# Experimental: as §1, §2, §3, §4
# PKCz = PKCz (Homo sapiens, UniProt Q05513); details: PKCz (Entrez PRKCZ), read-out: Residual activity (%)
# Experimental: as §1, §2, §3, §4
# NUAK1 = NUAK1 (Homo sapiens, UniProt O60285); details: NUAK1 (Entrez NUAK1), read-out: Residual activity (%)
# Experimental: as §1, §2, §3, §4
# Chain of p38g MAPK (P53778 whole entry): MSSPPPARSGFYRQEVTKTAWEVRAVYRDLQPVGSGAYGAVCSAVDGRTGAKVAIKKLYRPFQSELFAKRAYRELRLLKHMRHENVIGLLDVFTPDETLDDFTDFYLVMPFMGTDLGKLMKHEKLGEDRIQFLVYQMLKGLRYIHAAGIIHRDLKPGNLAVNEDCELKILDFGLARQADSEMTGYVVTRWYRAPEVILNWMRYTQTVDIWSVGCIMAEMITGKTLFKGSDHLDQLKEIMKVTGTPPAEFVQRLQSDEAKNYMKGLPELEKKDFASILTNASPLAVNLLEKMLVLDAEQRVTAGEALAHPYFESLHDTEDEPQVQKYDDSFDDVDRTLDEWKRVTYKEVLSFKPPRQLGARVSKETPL
# Chain of PKCz (Q05513 whole entry): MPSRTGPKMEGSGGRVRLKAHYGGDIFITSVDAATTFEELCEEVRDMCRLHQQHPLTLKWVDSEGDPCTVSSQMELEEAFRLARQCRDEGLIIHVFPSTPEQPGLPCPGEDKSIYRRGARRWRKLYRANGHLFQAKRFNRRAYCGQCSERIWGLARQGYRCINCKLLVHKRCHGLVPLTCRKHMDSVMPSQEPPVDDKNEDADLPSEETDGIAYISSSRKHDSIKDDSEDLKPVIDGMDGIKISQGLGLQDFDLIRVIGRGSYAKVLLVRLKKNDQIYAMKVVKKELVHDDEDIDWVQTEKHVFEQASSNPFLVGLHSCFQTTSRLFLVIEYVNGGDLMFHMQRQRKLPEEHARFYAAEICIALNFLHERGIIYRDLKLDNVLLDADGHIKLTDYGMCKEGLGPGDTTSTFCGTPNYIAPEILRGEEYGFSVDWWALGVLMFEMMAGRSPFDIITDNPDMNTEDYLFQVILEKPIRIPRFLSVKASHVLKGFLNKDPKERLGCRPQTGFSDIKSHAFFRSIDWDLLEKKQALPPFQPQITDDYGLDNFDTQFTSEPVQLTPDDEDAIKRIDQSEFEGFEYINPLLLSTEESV
# Chain of NEK2a (P51955 whole entry): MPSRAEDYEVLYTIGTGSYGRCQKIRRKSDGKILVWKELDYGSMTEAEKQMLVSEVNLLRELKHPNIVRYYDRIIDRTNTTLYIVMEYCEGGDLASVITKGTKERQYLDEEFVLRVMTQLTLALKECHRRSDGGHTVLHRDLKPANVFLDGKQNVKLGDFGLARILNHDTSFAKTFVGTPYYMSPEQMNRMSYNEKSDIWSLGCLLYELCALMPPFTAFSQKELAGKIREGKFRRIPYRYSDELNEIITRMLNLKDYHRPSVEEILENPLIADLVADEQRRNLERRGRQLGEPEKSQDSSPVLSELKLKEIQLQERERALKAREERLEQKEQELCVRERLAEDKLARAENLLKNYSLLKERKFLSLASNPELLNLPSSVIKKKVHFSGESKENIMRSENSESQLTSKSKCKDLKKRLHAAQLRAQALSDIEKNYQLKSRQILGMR
# Chain of NUAK1 (O60285 whole entry, species assumed): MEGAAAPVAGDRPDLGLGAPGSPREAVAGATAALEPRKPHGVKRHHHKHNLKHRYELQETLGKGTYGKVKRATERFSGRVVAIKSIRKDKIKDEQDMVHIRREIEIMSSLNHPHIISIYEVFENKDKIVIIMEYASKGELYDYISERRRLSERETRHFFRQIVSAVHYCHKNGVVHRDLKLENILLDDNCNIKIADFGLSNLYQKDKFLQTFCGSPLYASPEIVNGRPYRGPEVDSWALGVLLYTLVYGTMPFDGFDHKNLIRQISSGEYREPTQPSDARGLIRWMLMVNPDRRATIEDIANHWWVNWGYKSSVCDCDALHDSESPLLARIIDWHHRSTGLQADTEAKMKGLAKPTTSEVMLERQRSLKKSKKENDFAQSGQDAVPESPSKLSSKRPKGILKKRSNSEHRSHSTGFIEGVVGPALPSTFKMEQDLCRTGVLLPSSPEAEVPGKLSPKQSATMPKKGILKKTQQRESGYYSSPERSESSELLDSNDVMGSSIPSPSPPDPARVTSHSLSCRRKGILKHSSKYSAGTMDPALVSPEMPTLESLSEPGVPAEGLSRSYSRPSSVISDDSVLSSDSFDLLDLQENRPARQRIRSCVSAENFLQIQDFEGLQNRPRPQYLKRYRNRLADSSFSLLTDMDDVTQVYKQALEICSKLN
# Chain of MNK2 (Q9HBH9 whole entry): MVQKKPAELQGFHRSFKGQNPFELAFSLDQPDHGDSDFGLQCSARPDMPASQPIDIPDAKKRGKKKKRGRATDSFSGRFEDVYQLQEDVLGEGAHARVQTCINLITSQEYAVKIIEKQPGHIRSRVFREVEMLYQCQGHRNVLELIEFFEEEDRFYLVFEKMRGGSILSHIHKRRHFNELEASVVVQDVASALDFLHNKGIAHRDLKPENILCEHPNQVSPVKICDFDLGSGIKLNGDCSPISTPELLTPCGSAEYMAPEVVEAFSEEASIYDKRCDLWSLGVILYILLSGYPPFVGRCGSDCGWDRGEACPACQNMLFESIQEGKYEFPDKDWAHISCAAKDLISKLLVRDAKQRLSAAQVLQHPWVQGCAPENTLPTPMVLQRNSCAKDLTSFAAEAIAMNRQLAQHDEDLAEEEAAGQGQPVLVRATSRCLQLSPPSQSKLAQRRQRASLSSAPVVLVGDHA
# Chain of TSSK1 (Q9BXA7 whole entry): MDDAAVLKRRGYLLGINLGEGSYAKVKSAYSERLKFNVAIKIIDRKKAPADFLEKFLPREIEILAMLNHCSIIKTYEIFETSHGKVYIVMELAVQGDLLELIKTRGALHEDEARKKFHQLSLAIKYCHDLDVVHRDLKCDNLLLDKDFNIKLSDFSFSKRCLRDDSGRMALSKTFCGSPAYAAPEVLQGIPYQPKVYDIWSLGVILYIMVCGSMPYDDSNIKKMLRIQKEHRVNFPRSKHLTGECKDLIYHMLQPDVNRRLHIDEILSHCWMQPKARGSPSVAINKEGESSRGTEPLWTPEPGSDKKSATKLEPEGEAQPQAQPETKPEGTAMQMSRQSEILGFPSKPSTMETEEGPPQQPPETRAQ
# Chain of DAPK1 (P53355 whole entry): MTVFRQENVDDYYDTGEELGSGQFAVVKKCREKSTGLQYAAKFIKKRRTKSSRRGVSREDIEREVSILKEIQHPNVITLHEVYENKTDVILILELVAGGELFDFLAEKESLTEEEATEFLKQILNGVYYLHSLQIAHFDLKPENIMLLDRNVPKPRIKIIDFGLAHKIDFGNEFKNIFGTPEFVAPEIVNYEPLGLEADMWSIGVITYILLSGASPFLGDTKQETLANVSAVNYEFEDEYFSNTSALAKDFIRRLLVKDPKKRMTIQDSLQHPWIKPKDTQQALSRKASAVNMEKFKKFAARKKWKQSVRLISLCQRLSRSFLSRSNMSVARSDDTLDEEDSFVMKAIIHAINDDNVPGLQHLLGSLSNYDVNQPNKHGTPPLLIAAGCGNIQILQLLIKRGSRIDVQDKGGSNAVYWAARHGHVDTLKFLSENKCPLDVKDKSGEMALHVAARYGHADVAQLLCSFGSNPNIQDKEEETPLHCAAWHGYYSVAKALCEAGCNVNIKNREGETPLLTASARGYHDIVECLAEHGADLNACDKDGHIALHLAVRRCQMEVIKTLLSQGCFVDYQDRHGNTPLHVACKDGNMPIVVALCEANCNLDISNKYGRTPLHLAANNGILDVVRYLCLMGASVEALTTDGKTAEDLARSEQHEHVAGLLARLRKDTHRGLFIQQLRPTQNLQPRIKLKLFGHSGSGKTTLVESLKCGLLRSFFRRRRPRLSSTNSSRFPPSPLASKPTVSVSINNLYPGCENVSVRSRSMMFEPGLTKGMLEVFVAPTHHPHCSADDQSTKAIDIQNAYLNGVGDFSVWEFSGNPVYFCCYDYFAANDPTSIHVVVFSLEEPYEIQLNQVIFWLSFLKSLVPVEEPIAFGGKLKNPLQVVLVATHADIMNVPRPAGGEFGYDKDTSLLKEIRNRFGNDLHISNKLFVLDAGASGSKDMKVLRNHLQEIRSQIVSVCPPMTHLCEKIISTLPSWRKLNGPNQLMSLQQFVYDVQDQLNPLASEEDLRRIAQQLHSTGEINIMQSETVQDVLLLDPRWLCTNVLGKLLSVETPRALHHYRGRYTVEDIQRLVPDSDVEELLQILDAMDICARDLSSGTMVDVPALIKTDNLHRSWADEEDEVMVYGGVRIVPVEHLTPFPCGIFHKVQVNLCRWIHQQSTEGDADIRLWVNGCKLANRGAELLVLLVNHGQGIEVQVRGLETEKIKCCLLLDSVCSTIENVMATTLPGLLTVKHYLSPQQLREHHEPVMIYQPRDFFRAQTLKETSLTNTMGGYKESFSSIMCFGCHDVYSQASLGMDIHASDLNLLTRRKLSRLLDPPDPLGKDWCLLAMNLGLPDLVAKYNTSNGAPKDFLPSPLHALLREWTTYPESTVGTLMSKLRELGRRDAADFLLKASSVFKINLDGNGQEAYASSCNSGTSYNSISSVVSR
# Chain of p38d MAPK (O15264 whole entry): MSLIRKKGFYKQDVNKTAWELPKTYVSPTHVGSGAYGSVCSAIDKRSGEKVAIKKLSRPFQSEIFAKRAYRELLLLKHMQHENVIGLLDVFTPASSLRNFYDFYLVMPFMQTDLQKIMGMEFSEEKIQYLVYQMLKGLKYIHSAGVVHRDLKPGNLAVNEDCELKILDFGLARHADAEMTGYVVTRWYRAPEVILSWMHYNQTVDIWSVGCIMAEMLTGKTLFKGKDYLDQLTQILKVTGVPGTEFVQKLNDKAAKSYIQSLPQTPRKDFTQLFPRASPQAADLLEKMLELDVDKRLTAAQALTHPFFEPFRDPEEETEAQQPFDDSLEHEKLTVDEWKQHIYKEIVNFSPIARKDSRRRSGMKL
# Chain of MPSK1 (O75716 whole entry): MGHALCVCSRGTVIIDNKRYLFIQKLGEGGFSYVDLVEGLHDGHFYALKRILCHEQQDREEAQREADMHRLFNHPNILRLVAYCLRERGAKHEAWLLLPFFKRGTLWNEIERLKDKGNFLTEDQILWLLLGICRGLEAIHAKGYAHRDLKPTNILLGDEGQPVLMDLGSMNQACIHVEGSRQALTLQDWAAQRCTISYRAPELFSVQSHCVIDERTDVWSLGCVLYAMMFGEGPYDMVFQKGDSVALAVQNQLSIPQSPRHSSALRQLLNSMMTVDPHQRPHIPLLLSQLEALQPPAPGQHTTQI
compound,measurement,setting,value
COc1ccc(Nc2ncnc3c2ccn3-c2ccc(C)c(C)c2)cc1Cl [compound 36],remaining activity at 1 µM,p38g MAPK,101%
same,remaining activity at 1 µM,NEK2a,86%
same,remaining activity at 1 µM,EPH-B4,99%
same,remaining activity at 1 µM,ZAP70,99%
same,remaining activity at 1 µM,PDK1,133%
same,remaining activity at 1 µM,RSK1,109%
same,remaining activity at 1 µM,Src,93%
same,remaining activity at 1 µM,TLK1,96%
same,remaining activity at 1 µM,PIM2,97%
same,remaining activity at 1 µM,SIK2,109%
same,remaining activity at 1 µM,p38d MAPK,128%
same,remaining activity at 1 µM,LKB1,101%
same,remaining activity at 1 µM,DAPK1,118%
same,remaining activity at 1 µM,MNK2,90%
same,remaining activity at 1 µM,JNK1,85%
same,remaining activity at 1 µM,EF2K,85%
same,remaining activity at 1 µM,CK1γ2,92%
same,remaining activity at 1 µM,PKCa,96%
same,remaining activity at 1 µM,IRAK4,113%
same,remaining activity at 1 µM,PKBa,90%
same,remaining activity at 1 µM,MAPKAP-K3,101%
same,remaining activity at 1 µM,PIM3,87%
same,remaining activity at 1 µM,ASK1,107%
same,remaining activity at 1 µM,SGK1,97%
same,remaining activity at 1 µM,Lck,95%
same,remaining activity at 1 µM,TESK1,88%
same,remaining activity at 1 µM,TSSK1,98%
same,remaining activity at 1 µM,MPSK1,96%
same,remaining activity at 1 µM,IGF-1R,119%
same,remaining activity at 1 µM,PKCz,111%
same,remaining activity at 1 µM,NUAK1,138%
